Assay results from the NIST ThermoML archive (doi:10.1021/je900954y).

Assays:
[1] = 101 kPa, Liquid
[2] = xn = mol fraction of the nth substance listed; details: 101 kPa, Liquid

OCCO [1,2-ethanediol]
[1]
Details | mass density [kg/m3] | viscosity [mPa·s]
298.15 K | 1109.2 | 15.41
303.15 K | 1104.2 | 12.73
308.15 K | 1100.6 | 10.66

OCCO [1,2-ethanediol] + CCC(C)O
[2], x2 = 0
Details | mass density [kg/m3] | viscosity [mPa·s]
298.15 K | 1109.2 | 15.41
303.15 K | 1104.2 | 12.73
308.15 K | 1100.6 | 10.66

CC(O)CO (configuration not stated) [1,2-propanediol]
[1]
Details | mass density [kg/m3] | viscosity [mPa·s]
298.15 K | 1033.1 | 45.44
303.15 K | 1029.9 | 33.99
308.15 K | 1025.4 | 26.34

CC(O)CO (configuration not stated) [1,2-propanediol] + CCCCCCCO
[2]
Details | mass density, 298.15 K [kg/m3] | mass density, 303.15 K [kg/m3] | mass density, 308.15 K [kg/m3] | viscosity, 298.15 K [mPa·s] | viscosity, 303.15 K [mPa·s] | viscosity, 308.15 K [mPa·s]
x2 = 0 | 1033.1 | 1029.9 | 1025.4 | 45.44 | 33.99 | 26.34
x2 = 0.1383 | 980.3 | 976.4 | 972 | 27.34 | 20.69 | 16.05
x2 = 0.3163 | 928.8 | 925 | 920.8 | 15.9 | 12.8 | 9.977
x2 = 0.386 | 912.5 | 908.6 | 904.6 | 13.64 | 10.88 | 8.925
x2 = 0.4049 | 908.3 | 904.4 | 900.4 | 13.19 | 10.75 | 8.567
x2 = 0.4673 | 895.4 | 891.6 | 887.6 | 11.94 | 9.431 | 7.663
x2 = 0.6097 | 869.7 | 866 | 862.2 | 9.882 | 7.655 | 6.373
x2 = 0.7341 | 851 | 847.3 | 843.7 | 8.159 | 6.401 | 5.414
x2 = 0.8294 | 838.5 | 834.9 | 831.3 | 7.132 | 5.815 | 4.963

CC(O)CO (configuration not stated) [1,2-propanediol] + CCCCCCO
[2]
Details | mass density, 298.15 K [kg/m3] | mass density, 303.15 K [kg/m3] | mass density, 308.15 K [kg/m3] | viscosity, 298.15 K [mPa·s] | viscosity, 303.15 K [mPa·s] | viscosity, 308.15 K [mPa·s]
x2 = 0 | 1033.1 | 1029.9 | 1025.4 | 45.44 | 33.99 | 26.34
x2 = 0.0771 | 1004.5 | 1000.9 | 996.1 | 33.27 | 24.28 | 20.05
x2 = 0.1213 | 989.9 | 986.2 | 981.6 | 28.44 | 20.82 | 17.27
x2 = 0.2425 | 953.6 | 949.9 | 945.8 | 18.56 | 13.93 | 11.97
x2 = 0.3311 | 930.7 | 927 | 923.1 | 14.38 | 11.28 | 9.627
x2 = 0.5225 | 888.7 | 884.9 | 881.3 | 9.486 | 8.063 | 6.428
x2 = 0.5377 | 885.7 | 881.9 | 878.2 | 9.057 | 7.837 | 6.308
x2 = 0.6309 | 868.9 | 865.1 | 861.5 | 7.625 | 6.725 | 5.322
x2 = 0.7444 | 850.3 | 846.4 | 842.9 | 6.313 | 5.206 | 4.494
x2 = 0.8611 | 833.3 | 829.4 | 826 | 5.324 | 4.61 | 3.935
